Molecules are shown by their SMILES. pIC50: −log10 of the molar value.

For orientation: pIC50 means the negative decadic logarithm of the IC50, by convention in mol/L.

What all share (assay type): cell-based
Assay [1] addresses T1, MRGPRX2 (Homo sapiens, UniProt Q96LB1).
T1 sequence (Q96LB1 1-330): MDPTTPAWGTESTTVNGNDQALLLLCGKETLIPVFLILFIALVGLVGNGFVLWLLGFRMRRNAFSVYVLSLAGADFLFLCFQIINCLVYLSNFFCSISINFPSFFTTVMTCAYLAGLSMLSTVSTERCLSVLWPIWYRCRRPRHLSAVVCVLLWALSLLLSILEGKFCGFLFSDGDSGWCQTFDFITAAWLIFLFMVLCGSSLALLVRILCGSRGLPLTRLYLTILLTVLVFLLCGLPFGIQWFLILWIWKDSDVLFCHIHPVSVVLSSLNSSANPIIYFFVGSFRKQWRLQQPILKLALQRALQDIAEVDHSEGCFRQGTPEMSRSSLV
The assay is described as follows: MRGPRX2 IP1 HTRF assay. Particulars: CHO-K1 cells stably expressing human MRGPRX2; IP1 accumulation; agonist Cortistatin 14 1 μM. Set-up: host or cells: CHO-K1. The procedure:
This assay measures compound inhibition of myo-Inositol 1 phosphate (IP1) accumulation in CHO-K1 cells. Chinese hamster ovary (CHO-K1) cells stably expressing human MRGPRX2 were purchased from GenScript (Piscataway, NJ).
For the HTRF IP1 determination, an IP-One GqKit (Perkin Elmer Cisbio, Waltham, MA), which includes all reagents and buffers in this protocol, was used. The cells were maintained in culture medium (Ham's F-12K) containing 10% (v/v) FBS, and 200 μg/mL Zeocin. For the assay, the cells were harvested and resuspended in culture medium with 2% FBS and without Zeocin, then were passed through a 40 μm filter. Cells were added at 20000 cells in a 5 μL/well to a 384-well white small volume cell culture plate (Greiner VWR, Radnor, PA) which contained 50 nL/well of test compound serially diluted at a selected concentration range in DMSO. 5 μL/well of prepared 2× Stimulation Buffer 2 was then added to plates and was incubated at 37° C. with 5% CO2 for 1 h. 5 μL/well of agonist Cortistatin 14 (Bio-TechneR&D Systems, Minneapolis, MN) in 1× Stimulation Buffer 2, for a 1 μM final concentration, was then added to plates and incubated at 37° C. with 5% CO2 for 1 h. 6 μL/well of 1:20 diluted Detection Reagent Mix (d2 and Cryptate) was added to the plates and incubated for 1 h in the dark. Plates were read on the PHERAstar microplate reader (BMG Labtech Cary, NC) to determine the HTRF ratio of the acceptor and donor emission signals. The IP1 concentrations were calculated from a standard curve following the IP-One GQ kit instructions. Wells with DMSO only and wells with high concentration of reference antagonist were used as controls for normalization. Compound IC50 curves were globally fitted with 3- or 4-parameter Hill equation in a Genedata Screener (Genedata Basel, Switzerland).
In general terms: In TR-FRET formats the signal depends on donor and acceptor labels being close together.

Assay [2] deals with T1, MRGPRX2. Kind of assay: MRGPRX2 β-Arrestin assay. Set-up: host or cells: PathHunter CHO-K1. The following applies: PathHunter CHO-K1 MRGPRX2 β-Arrestin cell line; agonist Cortistatin 14 0.25 μM. An excerpt: This assay measures compound inhibition of β-Arrestin recruitment, which is part of the G protein-independent pathway that results from the ligand-activated GPCR phosphorylation by specific GPCR kinases. The PathHunter CHO-K1 MRPGRX2 β-Arrestin Cell line stably expressing ProLink tagged MRGPRX2 and Enzyme Acceptor Tagged β-Arrestin was purchased from Eurofins DiscoverX, (Fremont, CA).
The cells were maintained in culture medium from the Europhins DiscoverX Cell Culture Kit-107 which includes FBS, hygromycin B and G418. For the assay, the cells were harvested and were resuspended with Cell Plating Reagent 2 (Eurofins DiscoverX). Cells were added 10000 cells in 25 μL/well to a 384-well black cell culture plate (Greiner VWR, Radnor, PA) which contained 125 nL/well of compound at a selected serially diluted concentration range or DMSO. The plate was incubated at 37° C. with 5% CO2 for 1 h. 2 μL/well of agonist Cortistatin 14 was diluted in Protein Dilution Buffer, (Eurofins DiscoverX) for a final concentration of 0.25 μM, was added and the plate was incubated at 37° C. with 5% CO2 for 90 min. 14 μL/well of Detection Reagent Mix (PathHunter Detection Kit, Eurofins DiscoverX) was added to the plates and further incubated for 1 h in the dark. Plates were read on the PHERAstar microplate reader (BMG Labtech Cary, NC) measuring luminescence 0.1 to 1 s per well. Data was normalized using DMSO only wells and wells with high concentration of reference antagonist as controls. Compound IC50 curves were globally fitted with 3- or 4-parameter Hill equation in a Genedata Screener (Genedata Basel, Switzerland).

The target of assay [3] is T1, MRGPRX2. The assay is described as follows: MRGPRX2 FLIPR calcium mobilization assay. Set-up: host or cells: CHO-K1. The following applies: CHO-K1 cells stably expressing human MRGPRX2; Ca2+ release; agonist Cortistatin-14 at EC80. The procedure:
Chinese hamster ovary (CHO-K1) cells stably expressing human MRGPRX2 were purchased from Genescript (Piscataway, NJ). The cells were maintained in culture medium (Ham's F-12K) containing 10% (v/v) FBS, 200 μg/mL Zeocin, 100 units/mL penicillin G and 100 μg/mL streptomycin (Life Technologies, Carlsbad, CA). For the assay, the cells were harvested and resuspended with culture medium without Zeocin before plating at 8000 cells per well in 20 μL in 384-well black clear bottom cell culture plates (VWR, Radnor, PA). After 24 hour culture at 37° C. and 5% CO2, the cells were loaded with 20 μL/well of calcium dye (FLIPR Calcium 6 Assay Kit, Molecular Devices, San Jose, CA) diluted in loading buffer (1× Hank's Balanced Salt Solution (HBSS), 5 mM probenecid, 20 mM 4-(2-hydroxyethyl)-1-piperazineethanesulfonic acid (HEPES), pH 7.4, VWR, Radnor, PA) followed with 45 min incubation at 37° C. and 40 min. at r.t. in the dark. Cells were then treated with the addition of 10 uL/well test compounds with a range of increasing concentrations diluted in the assay buffer (1×HBSS, 20 mM HEPES, pH 7.4, VWR, Radnor, PA) with FLIPR Penta (Molecular Devices. San Jose, CA) and incubated for 30 min. at r.t. Ca^2+ release was measured with FLIPR Penta with 10 s basal fluorescence measurement, then 12.5 μL of 5× agonist Cortistatin-14 (Tocris, Minneapolis, MN) at final concentration corresponding to the EC80 were added followed with continued fluorescence signal monitoring for an additional 110 s. The base line adjusted (median of first 10 s base line) max value of the Relative Fluorescence Unit (RFU) was plotted against compound concentrations. Wells with no compound were served as the positive controls, and wells with high concentration of reference antagonist were used as negative controls. IC50 curves were globally fitted with 3- or 4-parameter Hill equation in a Genedata Screener (Genedata Basel, Switzerland).

As for `Cn1cc2c(N[C@@H]3CCC[C@H](Nc4cc(C(F)(F)F)nc5ccc(Cl)cc45)C3)nccc2n1` [Example 1, (1S,3R)-N^1-(6-Chloro-2-(trifluoromethyl)quinolin-4-yl)-N^3-(2-methyl-2H-pyrazolo[4,3-c]pyridin-4-yl)cyclohexane-1,3-diamine], the figures for the pIC50 in assay [1], in assay [2] and in assay [3] were 6.00 to 7.00, 7.00 to 10.00 and 7.00 to 10.00, respectively.

For `Cn1cnc2ccnc(N[C@H]3CC[C@@H](Nc4cc(C(F)(F)F)nc5ccc(F)cc45)CC3)c21` [Example 23, (1s,4s)-N^1-(6-Fluoro-2-(trifluoromethyl)quinolin-4-yl)-N^4-(3-methyl-3H-imidazo[4,5-c]pyridin-4-yl)cyclohexane-1,4-diamine], the pIC50 in assay [1], in assay [2] and in assay [3] was 7.00 to 10.00 in each case.

Turning to `Cn1cnc2ccnc(N[C@H]3CC[C@@H](Nc4cc(C(F)(F)F)nc5ccccc45)CC3)c21` [Example 22, (1s,4s)-N^1-(3-Methyl-3H-imidazo[4,5-c]pyridin-4-yl)-N^4-(2-(trifluoromethyl)quinolin-4-yl)cyclohexane-1,4-diamine], the negative-log IC50 (pIC50) in assay [1] is 6.00 to 7.00; in assay [2] it was 7.00 to 10.00; in assay [3] it was 7.00 to 10.00.

`Cc1cc2c(N[C@@H]3CCC[C@H](Nc4cc(C(F)(F)F)nc5ccc(Cl)cc45)C3)nccn2n1` [Example 11, (1S,3R)-N^1-(6-Chloro-2-(trifluoromethyl)quinolin-4-yl)-N^3-(2-methylpyrazolo[1,5-a]pyrazin-4-yl)cyclohexane-1,3-diamine]: the pIC50 in assay [1], in assay [2] and in assay [3] was 7.00 to 10.00 throughout.

As to `FC(F)(F)c1cc(N[C@H]2CCC[C@@H](Nc3nnc4n3CCOC4)C2)c2cc(Cl)ccc2n1` [Example 36, (1S,3R)-N^1-(6-Chloro-2-(trifluoromethyl)quinolin-4-yl)-N^3-(5,6-dihydro-8H-[1,2,4]triazolo[3,4-c][1,4]oxazin-3-yl)cyclohexane-1,3-diamine], the pIC50 in assay [1], in assay [2] and in assay [3] was 7.00 to 10.00 throughout.

In the case of `Cc1ncc2c(N[C@@H]3CCC[C@H](Nc4cc(C(F)(F)F)nc5ccc(Cl)cc45)C3)nccn12` [Example 10, (1S,3R)-N^1-(6-Chloro-2-(trifluoromethyl)quinolin-4-yl)-N^3-(3-methylimidazo[1,5-a]pyrazin-8-yl)cyclohexane-1,3-diamine], the negative logarithm of the IC50 (pIC50) in assay [1], in assay [2] and in assay [3] was 7.00 to 10.00 in each case.

With `FC(F)(F)c1cc(N[C@H]2CCC[C@@H](Nc3nccc4ncccc34)C2)c2cc(Cl)ccc2n1` [Example 5, (1S,3R)-N^1-(6-Chloro-2-(trifluoromethyl)quinolin-4-yl)-N^3-(1,6-naphthyridin-5-yl)cyclohexane-1,3-diamine], the pIC50 in assay [1], in assay [2] and in assay [3] was 7.00 to 10.00 each time.

With `FC(F)(F)c1cc(N[C@H]2CCC[C@@H](Nc3ncnc4ncccc34)C2)c2cc(Cl)ccc2n1` [Example 26, (1S,3R)-N^1-(6-Chloro-2-(trifluoromethyl)quinolin-4-yl)-N^3-(pyrido[2,3-d]pyrimidin-4-yl)cyclohexane-1,3-diamine], the pIC50 in assay [1], in assay [2] and in assay [3] was 7.00 to 10.00 each time.

`Cn1cnc2ccnc(N[C@@H]3CCC[C@H](Nc4cc(C(F)(F)F)nc5ccc(Cl)cc45)C3)c21` [Example 4, (1S,3R)-N^1-(6-Chloro-2-(trifluoromethyl)quinolin-4-yl)-N^3-(3-methyl-3H-imidazo[4,5-c]pyridin-4-yl)cyclohexane-1,3-diamine]: the pIC50 in assay [1], in assay [2] and in assay [3] was 7.00 to 10.00 each time.

As for `FC(F)(F)c1cc(N[C@H]2CC[C@@H](Nc3nccc4ncccc34)CC2)c2cc(Cl)ccc2n1` [Example 13, (1s,4s)-N^1-(6-Chloro-2-(trifluoromethyl)quinolin-4-yl)-N^4-(1,6-naphthyridin-5-yl)cyclohexane-1,4-diamine], the negative-log IC50 (pIC50) in assay [1], in assay [2] and in assay [3] was 7.00 to 10.00 in each case.

As to `Fc1ccc2nc(C(F)(F)F)cc(N[C@H]3CCC[C@@H](Nc4nccc5ncccc45)C3)c2c1` [Example 25, (1S,3R)-N^1-(6-Fluoro-2-(trifluoromethyl)quinolin-4-yl)-N^3-(1,6-naphthyridin-5-yl)cyclohexane-1,3-diamine], the pIC50 in assay [1], in assay [2] and in assay [3] was 7.00 to 10.00 each time.

Regarding `Cn1c(N[C@@H]2CCC[C@H](Nc3cc(C(F)(F)F)nc4ccc(Cl)cc34)C2)nc2cccnc21` [Example 21, (1S,3R)-N^1-(6-Chloro-2-(trifluoromethyl)quinolin-4-yl)-N^3-(3-methyl-3H-imidazo[4,5-b]pyridin-2-yl)cyclohexane-1,3-diamine], the pIC50 in assay [1], in assay [2] and in assay [3] was 7.00 to 10.00 in each case.

With `FC(F)(F)c1cc(N[C@H]2CCC[C@@H](Nc3nccn4cncc34)C2)c2cc(Cl)ccc2n1` [Example 9, (1S,3R)-N^1-(6-Chloro-2-(trifluoromethyl)quinolin-4-yl)-N^3-(imidazo[1,5-a]pyrazin-8-yl)cyclohexane-1,3-diamine], the pIC50 in assay [1], in assay [2] and in assay [3] was 7.00 to 10.00 each time.

Source of the values: patent publication US20250270208A1, “BICYCLIC HETEROCYCLES AS MRGPRX2 ANTAGONISTS” (Incyte Corporation, priority 2023, published 2025).
